≈ marks a conversion by molar mass, not a printed value.
Legend:
[1] = tested on: Licht. Corymbifera; test: MIC against moulds; assay type: cell-based; settings: 6 isolates
[2] = tested on: Purpureocillium lilacinum; test: MIC against rare moulds resistant to AmB; assay type: cell-based; settings: 6 isolates
[3] = Liver Microsome stability (In Vitro Metabolism); assay type: in vitro ADME; settings: for Remaining (T = NCF60 min): no cofactor 60 min
Experimental: Working Compound solution: 10 uM in 50 mM potassium phosphate buffer with 9% MeOH and 1% DMSO
Microsome solution: working concentration 0.625 mg/ml
Stopping solution: Cold ACN with 200 ng/ml Tolbutamide and 200 ng/ml Labetalol (4° C.)
Procedure: In the well plates (T5, T10, T20, T30, T60, NCF60 (no cofactor 60)) 10 uL of the compound/control working solution was added (except T0 and matric blank) followed by microsome solution (80 uL) and the mixture was incubated at 37 C for about 10 mins. A solution of potassium phosphate (10 ul of 50 mM) was added to NCF60 well, incubated at 37 C and time counting started. After prewarming 10 ul of NADPH regenerating solution was added to each plate to start the reaction. At different time point 300 uL/well of stopping solution to terminate the reaction. The sampling plates were shaken for 10 mins and the centrifuged for 20 mins at 4000 rpm. The supernatant was half diluted with ultra pure water and the analyzed using LCMS.

[4] = target: T1, CYP1A2 (Homo sapiens, UniProt P05177); test: CYP Inhibition; assay type: in vitro ADME; settings: human liver microsome; for P450 1A2 % Inhibition: 10 um
T1 construct: from tissue; host or cells: human liver microsomes
T1 sequence (P05177 1-516): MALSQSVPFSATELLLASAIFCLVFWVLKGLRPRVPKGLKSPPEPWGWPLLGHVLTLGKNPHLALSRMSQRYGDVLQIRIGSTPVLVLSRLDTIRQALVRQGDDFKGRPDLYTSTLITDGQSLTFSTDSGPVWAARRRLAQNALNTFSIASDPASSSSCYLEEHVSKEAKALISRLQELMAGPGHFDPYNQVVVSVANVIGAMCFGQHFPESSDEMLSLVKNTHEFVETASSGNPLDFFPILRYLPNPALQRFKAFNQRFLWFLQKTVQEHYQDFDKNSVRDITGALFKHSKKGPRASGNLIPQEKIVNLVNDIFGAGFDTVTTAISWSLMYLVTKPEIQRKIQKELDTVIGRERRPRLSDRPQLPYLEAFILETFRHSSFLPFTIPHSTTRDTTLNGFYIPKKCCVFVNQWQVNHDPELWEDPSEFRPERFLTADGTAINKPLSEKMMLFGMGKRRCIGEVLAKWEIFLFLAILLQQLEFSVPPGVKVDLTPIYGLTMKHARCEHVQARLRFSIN
Experimental: The working solutions of the test compounds and the standard inhibitors were prepared in DMSO (100× final concentration). 20 ul of substrate solution (5 in 1 cocktail) was added to the wells followed by 2 ul test compound solution was added. 158 ul of human liver microsome (HLM) was added to all the wells of the incubated plate and warmed to 37° C. for 10 mins. 20 ul of NADPH cofactor solution was then added to all the wells of incubated plate and incubated at 37° C. for 10 mins. At the time point the reaction was quenched by adding 400 uL of cold stop solution. The samples were centrifuged at 4000 rpm for 20 mins to precipitate protein. 100 ul supernatant was diluted with 100 ul of ultra pure water and analyzed using LCMS.

[5] = tested on: CD-1 mice; assay type: in vivo; settings: for Mouse single IV injection: mortality: 40 mpk
Experimental: Procedure: The experiment was performed using the commercial Fungizone and Ambisome. Compound BA was directly used after purification without any special treatment. […] . Female CD-1 mice were (3 per group; body weight 30 g each) injected with the drugs/compounds and monitored for 24 h for death or distress signs.
Compound BA was directly used after purification without any special treatment. […] . Female CD-1 mice were (3 per group; body weight 30 g each) injected with the drugs/compounds and monitored for 24 h for death or distress signs.

[6] = tested on: KIM1, LCN2, TIMP1, SPP1; test: Biomarkers of renal injury by RTPCR after IV injection; design: species or system mice; settings: mouse, in vivo
[7] = tested on: C. albicans SN250; test: MIC; assay type: cell-based, Candida albicans
[8] = In vivo mouse pharmacokinetics, IV; design: species or system CD-1 mice
Experimental: The experiment was performed using the compounds synthesized in lab and purified by preparative HPLC (>91%). All the compounds were dissolved in D5W (5% dextrose in water) at for IV injection. Female CD-1 mice were (3 per group; body weight approx. 30 g each) injected with the compounds (as per planned dosage) and the blood samples were collected at different time points and the compound content was analysed using the following procedure.
An aliquot of […], IS solution (100 ng/mL Labetalol & 100 ng/mL Tolbutamide in ACN), the mixture was vortex-mixed well and centrifuged at 3900 rpm for 10 min, 4[…]. An aliquot of 90 μL supernatant was transferred to sample plate and mixed with 60 μL water, then the plate was shaken at 800 rpm for 10 min. 15.0 μL supernatant was injected for LC-MS/MS analysis.

[9] = tested on: C. krusei; test: MIC; assay type: cell-based
[10] = tested on: C. glabrata; test: MIC; assay type: cell-based
[11] = tested on: C. tropicalis; test: MIC; assay type: cell-based
[12] = tested on: A. fumigatus 1163; test: MIC; assay type: cell-based

In the case of `C[C@@H]1[C@H](O)[C@@H](C)/C=C/C=C/C=C/C=C/C=C/C=C/C=C/[C@H](OC2O[C@H](C)[C@@H](O)[C@H](N)[C@@H]2O)C[C@@H]2O[C@](O)(C[C@@H](O)C[C@@H](O)[C@H](O)CC[C@@H](O)C[C@@H](O)CC(=O)O[C@H]1C)C[C@H](O)[C@H]2C(=O)O` (stereo partly drawn) [AmB, Amphotericin B], the MIC ([1]; Lichtheimia corymbifera) is reported as 0.23 µM (≈ 0.213 µg/mL), the MIC ([2]; Purpureocillium lilacinum) is reported as over 16 µM and the CLint scaled at 1 µM ([3]; Dog liver microsomes) is reported as under 14 mL/min/kg. The “Remaining (T = 60 min)” value ([3]; Dog liver microsomes) was 106%, the half-life at 1 µM ([3]; Dog liver microsomes) was over 2.42 h and the microsomal CLint at 1 µM ([3]; Dog liver microsomes) was under 9.6 µL/min/mg. For the same compound, the “Remaining (T = NCF60 min)” value ([3]; Dog liver microsomes) was 94.7%, the CLint scaled at 1 µM ([3]; Human liver microsomes) was under 8.6 mL/min/kg and the “Remaining (T = 60 min)” value ([3]; Human liver microsomes) was 100%. For the same compound, the half-life at 1 µM ([3]; Human liver microsomes) was over 2.42 h, the microsomal CLint at 1 µM ([3]; Human liver microsomes) was under 9.6 µL/min/mg and the “Remaining (T = NCF60 min)” value ([3]; Human liver microsomes) was 104%. The CLint scaled at 1 µM ([3]; Monkey liver microsomes) was under 13 mL/min/kg, the “Remaining (T = 60 min)” value ([3]; Monkey liver microsomes) was 142% and the half-life at 1 µM ([3]; Monkey liver microsomes) was over 2.42 h. The microsomal CLint at 1 µM ([3]; Monkey liver microsomes) was under 9.6 µL/min/mg, the “Remaining (T = NCF60 min)” value ([3]; Monkey liver microsomes) was 105% and the CLint scaled at 1 µM ([3]; Mouse liver microsomes) was under 38 mL/min/kg. For the same compound, the “Remaining (T = 60 min)” value ([3]; Mouse liver microsomes) was 106%, the half-life at 1 µM ([3]; Mouse liver microsomes) was over 2.42 h and the microsomal CLint at 1 µM ([3]; Mouse liver microsomes) was under 9.6 µL/min/mg. The “Remaining (T = NCF60 min)” value ([3]; Mouse liver microsomes) was 93.1%, the CLint scaled at 1 µM ([3]; Rat liver microsomes) was under 17 mL/min/kg and the “Remaining (T = 60 min)” value ([3]; Rat liver microsomes) was 121%. The half-life at 1 µM ([3]; Rat liver microsomes) was over 2.42 h, the microsomal CLint at 1 µM ([3]; Rat liver microsomes) was under 9.6 µL/min/mg and the “Remaining (T = NCF60 min)” value ([3]; Rat liver microsomes) was 111%. The inhibition at 10 min, 10 µM ([4]; human liver microsomes, probe 5 in 1 substrate cocktail, read-out: P450 1A2 % Inhibition) was 23.1%, the “Mouse single IV injection: mortality” value [5] was 0/3 and the “Renal toxicity biomarkers KIM1, LCN2, TIMP1, SPP1” value [6] was “elevated”.
With `CC1C=CC=CC=CC=CC=CC=CC=CC(OC2OC(C)C(O)C(N)C2O)CC2OC(O)(CC(O)CC(O)C(O)CCC(O)CC(O)CC(=O)OC(C)C(C)C1O)CC(O)C2C(=O)NCCO` (stereo not drawn) [Compound BA] the “MIC C. albicans SN250” value [7] was 0.25 µM (≈ 0.242 µg/mL), the MIC [1] was 1 µM (≈ 0.967 µg/mL) and the MIC [2] was over 16 µM. The CL ([3]; Dog liver microsomes) was under 9.6 µL/min/mg, the “Remaining (T = 60 min)” value ([3]; Dog liver microsomes) was 111% and the T1/2 ([3]; Dog liver microsomes) was over 2.42 h. The CL ([3]; Human liver microsomes) was under 9.6 µL/min/mg, the “Remaining (T = 60 min)” value ([3]; Human liver microsomes) was 99.9% and the T1/2 ([3]; Human liver microsomes) was over 2.42 h. The CL ([3]; Monkey liver microsomes) was under 9.6 µL/min/mg, the “Remaining (T = 60 min)” value ([3]; Monkey liver microsomes) was 108% and the T1/2 ([3]; Monkey liver microsomes) was over 2.42 h. For the same compound, the CL ([3]; Mouse liver microsomes) was under 9.6 µL/min/mg, the “Remaining (T = 60 min)” value ([3]; Mouse liver microsomes) was 97.7% and the T1/2 ([3]; Mouse liver microsomes) was over 2.42 h. The CL ([3]; Rat liver microsomes) was under 9.6 µL/min/mg, the “Remaining (T = 60 min)” value ([3]; Rat liver microsomes) was 115% and the T1/2 ([3]; Rat liver microsomes) was over 2.42 h. For the same compound, the “P450 1A2 % Inhibition” value [4] was 0.0%, the “Number of Mice Alive” value ([5]; 40 mg/kg IV, 24 h) was 3/3 and the “Number of Mice Distress-Fee” value ([5]; 40 mg/kg IV, 24 h) was 3/3. For the same compound, the “Mouse single IV injection: mortality” value [5] was 0/4, the Tolerability in mice ([5]; IV in D5W) was “Well-Tolerated” and the “In vivo PK AUC0-inf” value ([8]; 1 mg/kg IV) was 7488] ng*hr/mL. For the same compound, the “In vivo PK Cl” value ([8]; 1 mg/kg IV) was 2.24 mL/min/kg, the “In vivo PK T1/2” value ([8]; 1 mg/kg IV) was 6.87 h and the “In vivo PK AUC0-inf” value ([8]; 5 mg/kg IV) was 26694 ng·h/mL. The “In vivo PK Cl” value ([8]; 5 mg/kg IV) was 3.13 mL/min/kg and the “In vivo PK T1/2” value ([8]; 5 mg/kg IV) was 8.00 h.
With `CC1C=CC=CC=CC=CC=CC=CC=CC(OC2OC(C)C(O)C(N)C2O)CC2OC(O)(CC(O)CC(O)C(O)CCC(O)CC(O)CC(=O)OC(C)C(C)C1O)CC(O)C2C(=O)NCCF` (stereo not drawn) [Compound BM] the “MIC C. krusei” value [9] was 1000 µM (≈ 969 µg/mL), the “MIC C. glabrata” value [10] was 250 µM (≈ 242 µg/mL) and the “MIC C. tropicalis” value [11] was 500 µM (≈ 485 µg/mL). The “MIC A. fumigatus 1163” value [12] was 1000 µM (≈ 969 µg/mL), the MIC [1] was 1 µM (≈ 0.969 µg/mL) and the MIC [2] was over 16 µM. For the same compound, the “P450 1A2 % Inhibition” value [4] was 7.8%.
